In the NIST ThermoML archive (doi:10.1016/j.jct.2013.11.005) one finds viscosity, mass density and surface tension liquid-gas data, which are given here for two molecules.

For this data set the following is noted: for viscosity / mass density: 101.33 kPa, Liquid; for viscosity: Falling or rolling sphere viscometry; for mass density: Vibrating tube method; for surface tension liquid-gas: Pendant drop shape.

SMILES strings stand for the structures. Numbers after ± are expanded uncertainties.

Consider `CCCCn1cc[n+](C)c1.N#C[S-]` [1-butyl-3-methylimidazolium thiocyanate], for which the viscosity (in general, the internal friction of a fluid under shear) reads like this: (293.15 K) 76.08 ± 2 mPa·s; (298.15 K) 59.81 ± 1.4 mPa·s; (303.15 K) 47.84 ± 1.1 mPa·s; (313.15 K) 32.2 ± 0.77 mPa·s; (323.15 K) 22.97 ± 0.54 mPa·s; (333.15 K) 17.12 ± 0.4 mPa·s. Also, the viscosity runs as follows: (343.15 K) 13.2 ± 0.31 mPa·s; (353.15 K) 10.5 ± 0.25 mPa·s. Also, the mass density (in general, the mass of a sample divided by its volume) stood at 1073.99 ± 0.99 kg/m3 (293.15 K); 1071.04 ± 0.98 kg/m3 (298.15 K); 1068.08 ± 0.98 kg/m3 (303.15 K); 1062.21 ± 0.97 kg/m3 (313.15 K); 1056.39 ± 0.95 kg/m3 (323.15 K); 1050.61 ± 0.94 kg/m3 (333.15 K). The mass density reads like this: (343.15 K) 1044.87 ± 0.93 kg/m3; (353.15 K) 1039.17 ± 0.92 kg/m3. Also, the surface tension liquid-gas (as a rule, the work needed to enlarge the surface of a liquid by unit area) (298.15 K) is given as 47 ± 0.7 mN/m; the surface tension liquid-gas (303.15 K) was 46.6 ± 0.7 mN/m; the surface tension liquid-gas (313.15 K) turned out to be 45.7 ± 0.7 mN/m; the surface tension liquid-gas (323.15 K) came out at 44.8 ± 0.7 mN/m.

Consider `CCn1cc[n+](C)c1.N#C[S-]` [1-ethyl-3-methylimidazolium thiocyanate], for which the viscosity is, setting by setting: (293.15 K) 28.27 ± 0.67 mPa·s; (298.15 K) 23.79 ± 0.56 mPa·s; (303.15 K) 20.25 ± 0.48 mPa·s; (313.15 K) 15.13 ± 0.36 mPa·s; (323.15 K) 11.73 ± 0.28 mPa·s; (333.15 K) 9.36 ± 0.22 mPa·s. Moreover, the viscosity by setting is: (343.15 K) 7.65 ± 0.18 mPa·s; (353.15 K) 6.38 ± 0.15 mPa·s. Further, the mass density by setting is: (293.15 K) 1120.02 ± 1.1 kg/m3; (298.15 K) 1116.97 ± 1.1 kg/m3; (303.15 K) 1113.91 ± 1.1 kg/m3; (313.15 K) 1107.95 ± 1.1 kg/m3; (323.15 K) 1101.84 ± 1.1 kg/m3; (333.15 K) 1095.89 ± 1 kg/m3. Besides, the mass density (343.15 K) came to 1089.98 ± 1 kg/m3 and the mass density (353.15 K) stood at 1084.12 ± 1 kg/m3. For the same molecule, the surface tension liquid-gas is 54.1 ± 0.8 mN/m (298.15 K), 53.6 ± 0.8 mN/m (303.15 K), 52.9 ± 0.8 mN/m (313.15 K) and 52.1 ± 0.8 mN/m (323.15 K).
